In patent publication US20250075176A1, “COMPOSITIONS COMPRISING HISTONE […] INHIBITORS OR REVERSE TRANSCRIPTASE INHIBITORS AND USE THEREOF” (FOREVE LABS LTD., priority 2022, published 2025):

Key:
young mouse oocytes = test: In vitro maturation of young mouse oocytes treated with epigenetic drugs; type: cell-based; conditions: 2-month-old oocytes, Chaetocin 0.5 μM 18 h, FIG. 7A
Text: (§1) Mouse oocyte in vitro maturation: After Euthanasia, ovaries were collected and dissected in L-15 medium (011151A) and supplemented with 200 um IBMX (17018) to prevent meiotic progression. Prophase I arrested oocytes were identified by visualization of the typical germinal vesicle and collected under a binocular using a Stripper (MD-MXL3-STR-CGR). After collection, oocytes were transferred into a-MEM medium (22561021) supplemented with IBMX covered with Mineral oil (M8410-11) to prevent evaporation, for recovery time of 25 min at 37° in a 5% CO2 incubator, and then washed in IBMX free a-MEM medium to initiate meiosis. The oocytes were incubated in a-MEM under oil in the incubator for 6 hours for prophase I or incubated for 19 hours for metaphase II. To assess maturation rates, oocytes were incubated for 19 hours after release and then fixed and stained by Hoechst to examine the entry into the second meiotic division. See below amendments for drug treatments.
(§2) Drug treatments: Ovaries were collected and dissected in L-15 medium supplemented with 200 um IBMX to prevent meiotic progression as described above. Prophase I arrested oocytes were collected using a Stripper as described above. […]

old mouse oocytes = test: In vitro maturation of old mouse oocytes in medium supplemented with drug; type: cell-based; conditions: for ability to induce maturation (first polar body extrusion and proper chromosome division): IVM media (a-MEM) with inhibitor, 24 hours, curcumin positive control, FIG. 9C-9D
Text: as §1
Drug treatments: Ovaries were collected and dissected in L-15 medium supplemented with 200 um IBMX to prevent meiotic progression as described above. Prophase I arrested oocytes were collected using a Stripper as described above. After collection, oocytes were transferred to a-MEM medium supplemented with IBMX +the desired drug covered with Mineral oil to prevent evaporation, for 4 hours at 37° in a 5% CO2 incubator (Since Chaetocin and IBMX have a cross reactivity with each other, the pause was not performed in Chaetocin experiments). After the pause, oocytes were washed in IBMX-free a-MEM that contains the drug to initiate meiosis. 19 hours after oocytes were released from IBMX, oocytes were fixed in PFA, permeabilized, and sealed as described above. Chaetocin is a hazarzous substance. For biosafety reasons, Chaetocin supplemented plates and matched controls were placed in a sealed chamber during incubation time.
It was next tested if similar results could be achieved without genetic manipulation. Old oocytes were treated with two different naturally occurring histone acetyltransferase (HAT) inhibitors: curcumin and garcinol. As a negative control, oocytes were given vehicle only. […] Next, a broader panel of naturally occurring HAT inhibitors were tested along with another reverse transcriptase (RT) inhibitor (FIG. 9C). As before, old oocytes were incubated in IVM media (a-MEM) supplemented with the inhibitors for 24 hours and maturation was measured. Oocytes with both first polar body extrusion and proper division of chromosomes (as evaluated by Hoechst staining) were considered as mature. Curcumin was used as a positive control.

human oocytes = test: Human oocyte IVM with HAT or RT inhibitor supplementation; type: cell-based; conditions: oocytes from young fertility preservation patients, Sage medium with LH and FSH, FIG. 11
Procedure: Human IVM protocol: Germinal vesicle (GV) oocytes were subjected to IVM in a Sage medium (A1-rad Medical) supplemented with 0.075 IU/mL luteinizing hormone (LH) and 0.075 IU/mL follicle stimulating hormone (FSH) overnight. HAT and/or RT inhibitors were added to the overnight culture in some experiments. All naked oocytes that were found were transferred for up to 48 hours of incubation in oocyte maturation medium (Sage In-Vitro Fertilization) supplemented with 0.075 IU/mL human menopausal gonadotropin (hMG) (Menopur, Ferring Pharmaceuticals). HAT and/or RT inhibitors were added to the 48-hour culture in some experiments. After 24 hours of incubation, the media was searched for mature oocytes that were immediately frozen. The media were then incubated for another 24 hours and searched again for other mature oocytes.
To also look at non-arrested human oocytes, we investigated the behavior of another cohort of human oocytes extracted from patients undergoing gonadotoxic treatment and therefore undergoing fertility preservation. In these cases, when hormonal induction and oocyte extraction are not possible due to the young age of the patient or social reasons, ovary surgical extraction is performed. After extraction, ovaries are dissected in medium in the IVF lab, and ovary tissue is cryopreserved. After remission, ovary tissue can be transplanted, and IVF performed. […]

PCAF = PCAF (Homo sapiens, UniProt Q92831); conditions: cited from earlier work
[1] = Acidity of the molecule and effect on medium pH; type: physicochemical
Text: The pH of the medium used was around 7.3 with buffering capacity between 6.9 and 7.6. […] This acidity interfered with maturation and indeed in the case of the two strongly acidic molecules inhibited it. Medium with a greater buffering capacity or a different concentration of these acidic molecules will allow for HAT inhibition induced maturation improvement.

older oocytes = conditions: aged animals, previously shown; cited from earlier work
H3K9me2 [2] = test: In situ staining intensity for H3K9me2 (heterochromatin) in old oocytes; type: cell-based, mouse; conditions: aged oocytes cultured with SRT-1720, FIG. 8G
Procedure: Mouse oocytes collection for in situ immunofluorescence: After Euthanasia, ovaries were collected and dissected in M2 medium (M7167). Oocytes were collected from pool of 3 animals at least (numbers of each experiment are noted in legend). Prophase I arrested oocytes were collected under a binocular using a Stripper and washed in hyaluronidase (H4272-30 MG) to remove granulosa cells and acidic Tyrode's Solution (T1788) to remove the Zona Pellucida. The oocytes were fixed using PFA 4% (15710) for 20 min, and then quenched in PBS supplemented with 10 mM glycine and 1% BSA.
(§3) In situ immunofluorescence: Permeabilization was performed using 0.1% Triton X-100. Cells were cultured in PBS contains 5% BSA for blocking, and first and secondary antibodies were diluted in 0.1 Tween 20 (P9416)/PBS containing 5% BSA. The immune-stained cells were mounted in Vectashield (H-1000) mounting medium containing 80 nM of Hoechst (33342) and sealed on a slide using an Imaging spacer (GBL654002).
Imaging and quantification: Oocytes were imaged using the Ti-Eclipse Nikon system, with an Andor Zyla nsc05537 camera. […] Every cell was imaged at multiple planes. In order to analyze the images in a quantitatively, a projection of maximum intensity was created. To measure staining intensity, every assessed region was normalized to an equal-size region in the background (outside the area of interest). […]

H3K9me2 [3] = test: H3K9me2 staining in treated young oocytes; type: cell-based, mouse; conditions: TSA 100 nm, 4 h arrest then 18 h until MII
Procedure: Chromosome spread and immunofluorescence: Prophase I arrested oocytes were collected from ovaries as above and incubated for 6 hours to reach the first prophase or for 17 hours to reach second meiosis prophase as described above. Matured oocytes were washed in M2 medium and then in acidic Tyrode's Solution to remove the Zona Pellucida. 15 min before the desired time for chromosome spread, oocytes were kept in hypotonic solution, composed of FBS (F7524) diluted in DDW in 1:1 ratio. Oocytes were then spread in spreading solution (1% PFA buffered to 9.2 pH, supplemented with 0.15% Triton X-100and 0.03% […]) on Superfrost plus slides (32090003). To assess ploidy, prophase II spreads were stained with Hoechst to visualize chromatin and CREST to visualize the centromeres, and the imaged chromosome were manually counted.
In situ immunofluorescence: Permeabilization was performed using 0.1% Triton X-100. […]
Imaging and quantification: Oocytes were imaged using the Ti-Eclipse Nikon system, with an Andor Zyla nsc05537 camera. […] In order to analyze the images in a quantitatively, a projection of maximum intensity was created. To measure staining intensity, every assessed region was normalized to an equal-size region in the background (outside the area of interest). […]

H3K4me3 = test: In situ staining for H3K4me3 in treated young oocytes; type: cell-based, mouse; conditions: TSA 100 nm
Procedure: as §3
(§4) Imaging and quantification: Oocytes were imaged using the Ti-Eclipse Nikon system, with an Andor Zyla nsc05537 camera. […] Every cell was imaged at multiple planes. In order to analyze the images in a quantitatively, a projection of maximum intensity was created. To measure staining intensity, every assessed region was normalized to an equal-size region in the background (outside the area of interest). The intensity score was generated by dividing the intensity in the area of interest by that of the background.
as §2

L1-encoded ORF1p = test: In situ immunofluorescence for L1-ORF1p in treated young oocytes; type: cell-based, mouse; conditions: TSA 100 nm
Procedure: as §3, §4, §2

H3K27Ac = test: In situ staining for H3K27Ac in treated young oocytes; type: cell-based, mouse; conditions: TSA 100 nm, 4 h arrest then 18 h until MII
Procedure: as §3, §4, §2

Rad51 = Rad51 nuclear localization (DNA damage response) in treated young oocytes; type: cell-based, mouse; conditions: TSA 100 nm
Procedure: as §3, §4, §2

PCAF, sequence (Q92831 whole entry, species assumed): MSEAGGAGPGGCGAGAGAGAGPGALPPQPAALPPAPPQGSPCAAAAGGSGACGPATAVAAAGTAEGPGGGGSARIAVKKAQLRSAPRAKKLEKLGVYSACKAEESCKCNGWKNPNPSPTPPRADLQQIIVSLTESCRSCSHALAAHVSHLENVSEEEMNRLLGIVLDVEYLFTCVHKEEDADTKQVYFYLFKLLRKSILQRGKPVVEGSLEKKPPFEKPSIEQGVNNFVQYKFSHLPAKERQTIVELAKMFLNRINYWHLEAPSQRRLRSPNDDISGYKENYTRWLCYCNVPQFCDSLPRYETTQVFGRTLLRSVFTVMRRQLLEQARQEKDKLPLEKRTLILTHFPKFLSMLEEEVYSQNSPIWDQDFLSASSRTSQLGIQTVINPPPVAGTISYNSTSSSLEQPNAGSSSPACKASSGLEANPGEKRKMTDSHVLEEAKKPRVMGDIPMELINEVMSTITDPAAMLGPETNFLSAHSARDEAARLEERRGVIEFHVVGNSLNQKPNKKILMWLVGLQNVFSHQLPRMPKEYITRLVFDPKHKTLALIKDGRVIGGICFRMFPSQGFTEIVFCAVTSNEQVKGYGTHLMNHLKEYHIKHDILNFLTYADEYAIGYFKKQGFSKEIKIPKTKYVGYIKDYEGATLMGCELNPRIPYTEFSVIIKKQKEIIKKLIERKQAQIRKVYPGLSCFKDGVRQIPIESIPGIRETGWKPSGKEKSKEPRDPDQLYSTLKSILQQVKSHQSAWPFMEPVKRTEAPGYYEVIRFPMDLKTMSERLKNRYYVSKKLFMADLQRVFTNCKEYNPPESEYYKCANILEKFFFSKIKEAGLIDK

## CN1C(=O)[C@@]23C[C@]4([C@]56C[C@@]78SS[C@@](CO)(C(=O)N7[C@H]5Nc5ccccc56)N(C)C8=O)c5ccccc5N[C@@H]4N2C(=O)[C@]1(CO)SS3 [Chaetocin]
Young mouse oocytes
  reduction in oocytes that properly mature: 18%

## COc1cc(/C=C/C(=O)CC(=O)/C=C/c2ccc(O)c(OC)c2)ccc1O [Curcumin]
Old mouse oocytes; old oocytes, curcumin 10 um, FIG. 9A
  maturation rate at the highest dose: over 80%
Old mouse oocytes; old oocytes, vehicle-only negative control, FIG. 9A-9B
  maturation rate versus vehicle: dose dependent increase
Human oocytes
  maturation ability of human oocytes: did not impair their maturation ability and even increased it
PCAF
  PCAF inhibition: do not

## O=C(O[C@@H]1Cc2c(O)cc(O)cc2O[C@@H]1c1cc(O)c(O)c(O)c1)c1cc(O)c(O)c(O)c1 [EGCG, Epigallocatechin gallate]
Old mouse oocytes; old oocytes
  ability to induce maturation (first polar body extrusion and proper chromosome division): did not produce increased maturation
[1]
  acidity: more weakly acidic

## NC(=O)c1ccc[n+]([C@@H]2O[C@H](COP(=O)([O-])OP(=O)(O)OC[C@H]3O[C@@H](n4cnc5c(N)ncnc54)[C@H](O)[C@@H]3O)[C@@H](O)[C@H]2O)c1 [NAD+, nicotinamide adenine dinucleotide]
Older oocytes
  oocyte quality: rejuvenated oocyte quality

## CC1=CC(=O)c2c(O)cccc2C1=O [Plumbagin]
Old mouse oocytes; old oocytes
  ability to induce maturation (first polar body extrusion and proper chromosome division): comparable to curcumin
PCAF
  PCAF inhibition: do not

## O=C(Nc1ccccc1-c1cn2c(CN3CCNCC3)csc2n1)c1cnc2ccccc2n1 [SRT-1720]
Old mouse oocytes; aged oocytes cultured with SRT-1720, FIG. 8H
  maturation ability of treated cells: recovered maturation ability
H3K9me2 [2]
  heterochromatin (H3K9me2 staining intensity): heterochromatin elevation

## CC(/C=C/C(=O)NO)=C\[C@@H](C)C(=O)c1ccc(N(C)C)cc1 [TSA, Trichostatin A]
H3K9me2 [3]
  H3K9me2 in situ staining: decrease
H3K4me3
  staining for H3K4me3: unchanged
L1-encoded ORF1p
  L1-ORF1p localization: accumulates in nuclei
  L1-encoded ORF1p overall signal level: do not show a L1-encoded ORF1p elevation
H3K27Ac
  H3K27Ac in situ staining: increase
Rad51
  DNA damage response (Rad51 nuclear localization): elevated

## CCCCCCCCCCCCCCCc1cccc(O)c1C(=O)O [anacardic acid]
Old mouse oocytes; old oocytes
  ability to induce maturation (first polar body extrusion and proper chromosome division): did not produce increased maturation
[1]
  acidity: highly acidic
PCAF
  PCAF inhibition: strongly inhibit

## CC(C)=CCC[C@]1(C)C=Cc2c(O)c3c(c(CC=C(C)C)c2O1)O[C@]12C(=C[C@@H]4C[C@H]1C(C)(C)O[C@@]2(C/C=C(/C)C(=O)O)C4=O)C3=O [gambogic acid]
Old mouse oocytes; old oocytes
  ability to induce maturation (first polar body extrusion and proper chromosome division): did not produce increased maturation
[1]
  acidity: highly acidic
PCAF
  PCAF inhibition: strongly inhibit
